In patent publication US20200325139A1, “NEW ANTIBIOTICS TARGETING MYCOBACTERIA” (priority 2017, published 2020):
Where two headings read alike, the source gives them in different places.

Key:
M. abscessus CIP104536 = assay: MIC of amoxicillin in presence or absence of DBOs, microdilution; type: cell-based; settings: for Fold reduction in the MIC of amoxicillin: M. abscessus, DBO 15 μM; for MIC of amoxicillin / MIC: M. abscessus CIP104536, DBO at 15 μM, listed as None = amoxicillin alone; for MIC: Mycobacteroides abscessus
BlaMab = assay: Carbamoylation of β-lactamase by DBOs, nitrocefin spectrophotometry; type: biochemical, Mycobacterium abscessus; settings: for Carbamoylation efficacy of β-lactamase BlaMab: 20° C., nitrocefin 100 μM, MES pH 6.4
Ldtfm = assay: Inhibition of L,D-transpeptidase by DBOs, residual nitrocefin hydrolysis; type: biochemical, E. faecium; settings: 260 min at 37° C.
M. tuberculosis H37Rv = assay: microbe, parasite or virus in culture; type: cell-based; settings: for MIC: Mycobacterium tuberculosis, H37RV
BlaC = BlaC (Mycobacterium tuberculosis, UniProt P9WKD3); assay: Carbamoylation of β-lactamase by DBOs, nitrocefin spectrophotometry; type: biochemical; settings: for Carbamoylation efficacy of β-lactamase BlaC: 20° C., nitrocefin 100 μM, MES pH 6.4, highest DBO concentration 100 μM
Chain of BlaC (P9WKD3 39-306): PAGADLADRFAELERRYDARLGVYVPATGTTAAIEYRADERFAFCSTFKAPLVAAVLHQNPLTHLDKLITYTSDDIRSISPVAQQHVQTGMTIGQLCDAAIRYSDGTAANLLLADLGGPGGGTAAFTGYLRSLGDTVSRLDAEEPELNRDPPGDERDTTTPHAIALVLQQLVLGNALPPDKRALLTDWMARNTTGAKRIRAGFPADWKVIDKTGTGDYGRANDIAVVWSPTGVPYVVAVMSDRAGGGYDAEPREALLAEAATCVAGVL

LdtMt2 = LdtMt2 (Mycobacterium tuberculosis, UniProt I6Y9J2); assay: Inhibition of L,D-transpeptidase by DBOs, residual nitrocefin hydrolysis; type: biochemical, M. tuberculosis; settings: 260 min, Inhibitor/LdtMt2 molar ratio 20 (DBO 200 μM, enzyme 10 μM); 260 min at 37° C.; read-out: Residual activity of LdtMt2 following pre-incubation
Chain of LdtMt2 (I6Y9J2 55-408): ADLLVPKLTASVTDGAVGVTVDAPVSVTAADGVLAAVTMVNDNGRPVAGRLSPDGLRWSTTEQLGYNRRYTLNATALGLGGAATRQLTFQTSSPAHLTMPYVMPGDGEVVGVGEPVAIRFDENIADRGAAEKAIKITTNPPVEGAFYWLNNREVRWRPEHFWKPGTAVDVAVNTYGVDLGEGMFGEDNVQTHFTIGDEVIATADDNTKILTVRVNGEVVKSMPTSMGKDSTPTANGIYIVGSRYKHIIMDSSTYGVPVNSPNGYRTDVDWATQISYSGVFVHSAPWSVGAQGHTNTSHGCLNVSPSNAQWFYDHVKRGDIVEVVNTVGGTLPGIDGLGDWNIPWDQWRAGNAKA

[1] = test system: M. tuberculosis H37Rv ΔblaC; assay: microbe, parasite or virus in culture; type: cell-based; settings: for MIC: Mycobacterium tuberculosis, H37RV
[2] = test system: M. abscessus CIP104536 ΔblaMab; assay: microbe, parasite or virus in culture; type: cell-based; settings: for MIC: Mycobacteroides abscessus
[3] = Inhibitor/Ldtfm molar ratio 1, enzyme 10 μM
[4] = Inhibitor/Ldtfm molar ratio 2.5, enzyme 10 μM
[5] = Inhibitor/Ldtfm molar ratio 5, enzyme 10 μM
[6] = Inhibitor/Ldtfm molar ratio 10, enzyme 10 μM
[7] = Inhibitor/Ldtfm molar ratio 20 (DBO 200 μM, enzyme 10 μM)
[8] = read-out: MIC of amoxicillin against indicated strain

| SMILES | Fold reduction in the MIC of amoxicillin (M. abscessus CIP104536) | Carbamoylation efficacy of β-lactamase BlaMab (BlaMab) | Residual activity of Ldtfm following pre-incubation (Ldtfm; [3]) [%] | Residual activity of Ldtfm following pre-incubation (Ldtfm; [4]) [%] | Residual activity of Ldtfm following pre-incubation (Ldtfm; [5]) [%] | Residual activity of Ldtfm following pre-incubation (Ldtfm; [6]) [%] | Residual activity of Ldtfm following pre-incubation (Ldtfm; [7]) [%] | Fold reduction in the MIC of amoxicillin (M. tuberculosis H37Rv) | Carbamoylation efficacy of β-lactamase BlaC (BlaC) | remaining activity at 200 µM (LdtMt2) [%] | also measured |
| --- | --- | --- | --- | --- | --- | --- | --- | --- | --- | --- | --- |
| NC(=O)[C@@H]1CC[C@@H]2CN1C(=O)N2OS(=O)(=O)O [Avibactam, reference compound] | at least 16 fold | (1.7 ± 0.1) × 10^5 M^−1 s^−1 | 66.3 | 36.4 | 15.8 | 3.4 | 2.4 | at least 16 fold | (2.4 ± 0.8) × 10^1 M^−1 s^−1 | – | Inhibition of the β-lactamase activity of BlaMab (in words) (BlaMab; nitrocefin as the substrate): most efficacious inhibition; Inhibition of the β-lactamase activity of BlaC (in words) (BlaC; nitrocefin as the substrate, tested up to 100 μM): poorly inhibited |
| O=C1N2C[C@@H](CC[C@H]2Cn2cc(CN3CCOCC3)nn2)N1OS(=O)(=O)[O-].[Na+] [Compound 1a.i.11] | less active | (4.4 ± 0.2) × 10^3 M^−1 s^−1 | 92.0 | 83.9 | 68.6 | 51.8 | 28.1 | less active | <5 × 10^0 M^−1 s^−1 | 73.9 | – |
| COCc1cn(C[C@@H]2CC[C@@H]3CN2C(=O)N3OS(=O)(=O)O)nn1 [Compound 1a.i.13] | – | – | – | – | – | – | – | – | – | 41.7 | – |
| O=C(O)CCc1cn(C[C@@H]2CC[C@@H]3CN2C(=O)N3OS(=O)(=O)O)nn1 [Compound 1a.i.14] | – | – | – | – | – | – | – | – | – | 87.1 | – |
| O=C1N2C[C@@H](CC[C@H]2Cn2cc(-c3ccccc3)nn2)N1OS(=O)(=O)O [Compound 1a.i.16] | – | – | – | – | – | – | – | – | – | 8.3 | – |
| O=C1N2C[C@@H](CC[C@H]2Cn2cc(-c3cccnc3)nn2)N1OS(=O)(=O)O [Compound 1a.i] | activity similar to that of avibactam | (2.2 ± 0.1) × 10^4 M^−1 s^−1 | 88.6 | 76.1 | 63.6 | 34.3 | 15.8 | activity similar to that of avibactam | <5 × 10^0 M^−1 s^−1 | 14.5 | MIC of amoxicillin (M. abscessus CIP104536; Table 1): 16 µg/mL; MIC of amoxicillin [1]: 1 µg/mL; MIC of amoxicillin ([2]; Table 1, M. abscessus CIP104536 ΔblaMab, DBO at 15 μM, listed as None = amoxicillin alone): 4 µg/mL; MIC of amoxicillin (M. tuberculosis H37Rv): 16 µg/mL |
| C[Si](C)(C)c1cn(C[C@@H]2CC[C@@H]3CN2C(=O)N3OS(=O)(=O)O)nn1 [Compound 2a.i] | – | (6.2 ± 0.2) × 10^4 M^−1 s^−1 | 88.8 | 82.7 | 68.0 | 50.7 | 27.2 | – | <5 × 10^0 M^−1 s^−1 | 72.4 | – |
| CC1(C)S[C@@H]2[C@H](NC(=O)[C@H](N)c3ccc(O)cc3)C(=O)N2[C@H]1C(=O)O [amoxicillin, reference compound] | – | – | – | – | – | – | – | – | – | – | MIC (M. abscessus CIP104536; Table 1, read-out: MIC of amoxicillin): > 256 µg/mL; MIC (M. abscessus CIP104536; Table 2, read-out: MIC of amoxicillin against indicated strain): > 256 µg/mL; MIC of amoxicillin (M. abscessus CIP104536; Table 1): >256 µg/mL; MIC ([1]; read-out: MIC of amoxicillin): 1 µg/mL; MIC [1, 8]: 1 µg/mL; MIC ([2]; CIP104536, read-out: MIC of amoxicillin): 4 µg/mL; MIC ([2]; CIP104536, read-out: MIC of amoxicillin against indicated strain): 4 µg/mL; MIC (M. tuberculosis H37Rv; read-out: MIC of amoxicillin): 128 µg/mL; MIC (M. tuberculosis H37Rv; [8]): 128 µg/mL |
